Test results published in US20240252572A1, “ANTI-INFLAMMATORY AGENT FOR INTESTINAL CELLS OF DOMESTIC ANIMAL” (SDS BIOTECH K.K., priority 2021, published 2024).

Test system: BIE (bovine intestinal epithelial) cells
Assay: Inflammatory cytokine gene expression (RT-PCR) in LPS-stimulated bovine intestinal epithelial cells
Assay type: cell-based
Conditions: CNSL 30 ppm, aspirin 10 ppm, single agents
Description: To evaluate the effect of endotoxin stimulated inflammatory reaction in the intestine, CNSL, vitamin K1 (FUJIFILM Wako Pure Chemical Corporation), or a combination thereof was added to bovine intestinal epithelial cells, the cells were cultured, and cytokine gene expression analysis was performed. Aspirin was used as a positive control. • 1. Seeding of BIE Cells • BIE (bovine intestinal epithelial) cells were seeded in a 12-well plate (manufactured by COSTAR) at 3.0×10^4 cells/well, and cultured in a CO2 incubator. • 2. […] A culture supernatant was collected, the wells were then washed with the sterilized PBS, and adherent cells were solubilized with TRIZOL, and harvested (at 9:00 p.m. on Day 5 and at 9:00 a.m. on Day 6) (12 hours or 24 hours) The sample in which TRIZOL (manufactured by INVITROGEN) is dissolved is partially purified by phenol-chloroform extraction and ethanol precipitation, and then dissolved in 10 μL of RNase-free water, and the O.D. (absorbance) of the resultant is measured with NanoDrop (manufactured by Thermo Fisher Scientific K.K.). […]

CC(=O)Oc1ccccc1C(=O)O [aspirin, acetylsalicylic acid]
action of the inflammation mediators, stimulated by endotoxin (LPS): suppress
